Assay results published in US20200408775A1, “APPARATUS AND METHOD FOR MULTIPLEXED PROTEIN QUANTIFICATION” (BIOMOTIF AB, priority 2018, published 2020).

System: Human Colon Carcinoma Cells HCT116
Test: Proteome changes in protein abundance upon drug treatment, 3-channel pI-multiplexing LC MS/MS
Assay type: cell-based
Conditions: 45 nM Methotrexate for 48 h vs 0.01% DMSO control, p<0.05, 570 proteins quantified, 3 biological replicates
Method: A three-channel isoelectric point-based multiplexing was applied for the analysis of proteome changes in protein abundance upon drug treatment, using the following procedure:
Human Colon Carcinoma Cells HCT116 were cultured at 37° C. with 5% CO2 in high-glucose Dulbecco's Modified Eagle's Medium (DMEM, Thermo Fisher Scientific) supplemented with 10% fetal bovine serum (Gibco) and 1% penicillin/streptomycin (Gibco). The cells were treated for 48 h with 45 nM Methotrexate in 0.01% dimethyl sulfoxide (DMSO). As a control experiment, cells were treated with 0.01% DMSO. The medium containing the drug (or 0.01% DMSO for the control) was replaced each 24 h by fresh medium. A total of 3 control samples and 3 treated samples were produced.
Cells (1 million cells per replicate sample) were washed twice with PBS (1 mL) and resuspended in 300 μL of lysis buffer (3% SDC, 20 mM EPPS, pH 8.5). The total protein concentration was measured using the BCA protein assay kit (Pierce) in accordance with the manufacturer's protocol. […]
6. Samples were analyzed together within MaxQuant (1% FDR and match between runs) and Quanty quantification software (1% FDR). Isoelectric point calculations were in-silico calculated as described in Pirmoradian M et al 2014. Proteins containing at least 1 peptide on each pI-channel were selected for quantification.

## CN(Cc1cnc2nc(N)nc(N)c2n1)c1ccc(C(=O)N[C@@H](CCC(=O)O)C(=O)O)cc1 [Methotrexate]
  number of proteins that demonstrated a statistical difference between the control and treated: 4
